Experimental data as given in US20190046507A1, “COMPOUNDS FOR THE TREATMENT OF MALARIA” (Merck Sharp & Dohme Corp., priority 2016, published 2019).

Each compound was assayed on asexual P. falciparum 3D7 parasites (assay: P. falciparum 3D7 growth inhibition assay with LDH activity readout (Assay 1)). Conditions: Plasmodium falciparum; 3D7 strain, 72 h incubation, LDH activity read by absorbance at 650 nm.
Format: cell-based
Method: A modified version of the assay described in Gamo, F. J., Sanz, L. M., Vidal, J., de Cozar, C., Alvarez, E., Lavandera, J. L., Vanderwall, D. E., Green, D. V., Kumar, V., Hasan, S., Brown, J. R., Peishoff, C. E., Cardon, L. R., Garcia-Bustos, J. F., Nature, 465 (2010) 305-310 (Gamo et al.) was used to assess the activity of compounds against asexual P. falciparum 3D7 parasites. Compounds were pre-dispensed in 384-well plates, RPMI/AlbuMAX growth media was added and P. falciparum inoculated. Plates were incubated for 72 h and then frozen at −80° C. overnight. LDH activity was quantified with the modified cofactor 3-acetylpyridine adenine dinucleotide (APAD) (Sigma Aldrich) by measuring absorbance of the tetrazolium indicator nitro blue tetrazolium (NBT) (Sigma Aldrich) at 650 nm.
An inoculum of synchronous P. falciparum (3D7 strain) parasitized red blood cells (PRBC) at 0.7% parasitaemia and 2% haematocrit in RPMI-1640, 5% AlbuMAX, 2% D-sucrose, 0.3% glutamine and 150 μM hypoxanthine was used for the assay.
Compound master plates (384-well) were prepared by a 10 pt serial dilution of compounds, from 1 mM to 50.8 nM, in columns 3-12 and 13-22. DMSO was dispensed into columns 1 and 23 of the compound master plate to be used as the positive growth control (100% viability). […] Intermediate compound dilution plates were prepared by dispensing 1 μl from each well of the compound master plate into 11.5 μl of RPMI/AlbuMAX growth media. Duplicate assay plates (384-well) were then prepared by dispensing 0.5 μL of compound from the intermediate dilution plates into 9.5 μl of RPMI/AlbuMAX growth media. The parasite inoculum (30 μL) was dispensed into the assay plates containing compounds using a Multidrop dispenser (Thermo Scientific) such that the final assay volume was 40 μL and final compound concentration was 1 μM-0.05 nM (the volume of compound addition can be adjusted to the preferred and agreed screening concentration). The final DMSO concentration was 0.1% (ideally 0.2% to limit toxicity to parasites), but this is dependent on volume of compound DMSO stock solution that can be supplied. Plates were incubated at 37° C. for 72 h in an atmosphere of 5% CO2, 5% O2, […].
After 72 h of incubation, plates were frozen at −80° C. overnight and then thawed at room temperature for at least 4 h. To evaluate LDH activity, 45 μL of freshly made reaction mix (174 mM sodium L-lactate (Sigma Aldrich), 214 μM 3-acetyl pyridine adenine dinucleotide (APAD) (Sigma Aldrich), 270 μM nitro blue tetrazolium chloride (NBT) (Sigma Aldrich), 4.35 U/mL diaphorase (from Clostridium kluyveri) (Sigma Aldrich), 0.7% Tween 20, 100 mM Tris-HCl pH 7.5) was dispensed using a Multidrop dispenser (Thermo Scientific). Plates were shaken to ensure mixing and absorbance at 650 nm was monitored using a Perkin Elmer Envision plate reader after 30 min of incubation at room temperature. Data were normalized to percent growth inhibition using positive and negative controls, and analysed using TIBCO Spotfire software. […]

| Structure (SMILES) | IC50 [nM] |
| --- | --- |
| CC(C)CC[C@]1(c2ccccc2)NC(=N)N(Cc2ccc(C(C)(C)C)c(C(=O)N3CCn4ccnc4C3)c2)C1=O [Compound 5] | 21.2 |
| CC(=O)N1CCN(C(=O)c2cc(F)cc(CN3C(=N)NC(c4ccccc4)(c4ccccc4)C3=O)c2)CC1 [Compound 1] | 4.5 |
| CC(C)CC[C@]1(c2ccccc2)NC(=N)N(Cc2ccc(C(C)(C)C)c(C(=O)N(C)C(C)c3ccncc3)c2)C1=O (stereo partly shown) [Compound 7] | 25.1 |
| CC(C)CC[C@]1(c2ccccc2)NC(=N)N(Cc2ccc(C(C)(C)C)c(C(=O)N3CCOC[C@@H]3C)c2)C1=O [Compound 8] | 56.6 |
| N=C1NC(C[C@@H]2CCCO2)(c2ccccc2)C(=O)N1Cc1ccc(C(F)(F)F)c(C(=O)N2Cc3nccnc3C2)c1 (stereo partly shown) [Compound 2] | 5.8 |
| Cc1cc(CN2C(=N)NC(c3ccccc3)(c3ccccc3)C2=O)cc(C(=O)N2CCNC(=O)C2)c1 [Compound 20] | 356 |
| CC(C)CC[C@]1(c2ccccc2)NC(=N)N([C@@H]2CCc3ccc(C(=O)N4Cc5nccnc5C4)cc32)C1=O [Compound 6] | 21.8 |
| CCOC(=O)NC1CCN(C(=O)c2cc(C)cc(CN3C(=N)NC(c4ccccc4)(c4ccccc4)C3=O)c2)CC1 [Compound 18] | 313 |
| CC(C)CC[C@]1(c2ccccc2)NC(=N)N(Cc2ccc(C(F)(F)F)c(C(=O)N3CC(O)C(F)C3)c2)C1=O (stereo partly shown) [Compound 3] | 9.6 |
| CC(C)CC[C@]1(c2ccccc2)NC(=N)N(Cc2ccc(C(C)(C)C)c(C(=O)N(C)Cc3ccon3)c2)C1=O [Compound 10] | 120 |
| CC(C)CC[C@]1(c2ccccc2)NC(=N)N(Cc2ccc(C(C)(C)C)c(C(=O)N(C)Cc3noc(C4CC4)n3)c2)C1=O [Compound 17] | 310 |
| N=C1NC(c2ccc(F)cc2)(C2CCCCC2)C(=O)N1Cc1ccc(C(F)(F)F)c(C(=O)N2Cc3nccnc3C2)c1 (stereo not shown) [Compound 4] | 9.7 |
| Cc1ccc(C2(CCC(C)C)NC(=N)N(Cc3ccc(C(C)(C)C)c(C(=O)N4Cc5cncnc5C4)c3)C2=O)cc1 (stereo not shown) [Compound 14] | 225 |
| Cc1ccc(CN2C(=N)NC(CC(C)C)(c3ccccc3)C2=O)cc1C(=O)NC1CC1 (stereo not shown) [Compound 16] | 240 |
| Cc1ccc(C2(C3CCCCC3)NC(=N)N(Cc3ccc(C(C)(C)C)c(C(=O)N4Cc5ccccc5C4)c3)C2=O)cc1 (stereo not shown) [Compound 12] | 221 |
| Cc1ccc(C2(c3ccc(C)cc3)NC(=N)N(Cc3ccc(C(C)(C)C)c(C(=O)N4Cc5nccnc5C4)c3)C2=O)cc1 [Compound 13] | 223 |
| CC(C)CC[C@]1(c2ccccc2)NC(=N)N(Cc2ccc(C(C)(C)C)c(C(=O)NCc3cccnc3)c2)C1=O [Compound 11] | 172 |
| Cc1ccc([C@@]2(CC3CC3)NC(=N)N(Cc3ccc(C(C)(C)C)c(C(=O)N4CCC(C)(C)C4)c3)C2=O)cc1 [Compound 9] | 86.6 |
| CC(C)(C)c1ccc(CN2C(=N)NC(c3ccccc3)(c3ccccc3)C2=O)cc1C(=O)N1Cc2nccnc2C1 [Compound 15] | 239 |
